US20080279812A1, “Disease Prevention and Vaccination Prior to Thymic Reactivation” (Norwood Immunology, Ltd., priority 2003, published 2008)
Where a SMILES comes first, the peptide text is derived from it. [ ]: non-standard residue; d: D form. dPhe(4-Cl) = N[C@H](Cc1ccc(Cl)cc1)C(=O)O; d2Nal = N[C@H](Cc1ccc2ccccc2c1)C(=O)O; Lys(iPr) = CC(C)NCCCC[C@H](N)C(=O)O; NMeY = CN[C@@H](Cc1ccc(O)cc1)C(=O)O; d3Pal = N[C@H](Cc1cccnc1)C(=O)O

How the values were obtained:
sex steroids [1] = conditions: single injection of sufficient dose; cited from earlier work
[2] = test system: thymus, spleen and lymph node cell numbers; assay: Chemical castration compared to surgical castration, T cell regeneration after cyclophosphamide; type: in vivo; conditions: mice
Source text: FIG. 9: Changes in thymus (open bars), spleen (gray bars) and lymph node (black bars) cell numbers following treatment with cyclophosphamide, a chemotherapy agent, and surgical or chemical castration performed on the same day. Note the rapid expansion of the thymus in castrated animals when compared to the non-castrate (cyclophosphamide alone) group at 1 and 2 weeks post-treatment. In addition, spleen and lymph node numbers of the castrate group were well increased compared to the cyclophosphamide alone group. (n=34 per treatment group and time-point).
T cell Depletion Using Cyclophosphamide. Old mice (e.g., 2 years old) were injected with cyclophosphamide (200 mg/kg body wt over two days) and castrated.
FIG. 9 illustrates the use of chemical castration compared to surgical castration in enhancement of T cell regeneration. […] The enhancing effects were equivalent on thymic expansion and also the recovery of spleen and lymph node. The kinetics of chemical castration are slower than surgical, that is, mice take about 3 weeks longer to decrease their circulating sex steroid levels. However, chemical castration is still as effective as surgical castration and can be considered to have an equivalent effect.

[3] = G-CSF with or without Lupron in small cell lung cancer patients on chemotherapy (Example 26); type: in vivo, human
sex steroids [4] = conditions: 30 mg injection; cited from earlier work
[5] = GnRH analog before allogeneic BMT (Example 27); type: in vivo, human
Description: In a randomized unblinded study 20 patients are treated with a GnRH analog prior to receiving a BMT. This patient group is to a control group (n=19) who also undergo a BMT, but will not receive a GnRH analog.
All patients receive an allogeneic graft from a matched donor in accordance with accepted medical techniques (Lincz et al., (2001) Leuk. and Lymph. 40: 373).
Prior to transplant, the BM from all patients is ablated using standard ablating drugs and techniques (Segeren et al., (1999). Br. J. Haem. 105:127-130).
Blood samples from each patient are drawn at days −21, −2, 0, 1, 2, 3, 7, 10, 14 and 21. The blood samples are then evaluated for WBC, neutrophils, T cells (by FACS analysis, as described in detail above), granulocytes levels, and hematocrit, using the methods described in detail elsewhere herein, as well as methods well known to those skilled in the art.
Additionally, all patients are monitored for infection rates (including viral infection), the use of antibiotics, febrile neutropenia, and mean days of severe neutropenia (ANC<0.5×10^9/L). These analyses are performed as outlined above, with the patients being followed up at 1 month, 3 months, 6 months and 9 months from the date of transplant.

[6] = test system: H1N1 strains of Influenza; type: in vivo, human; conditions: patients in all groups, after influenza vaccination
[7] = GnRH agonist in metastatic prostate cancer, haemopoiesis and neutrophil count (Example 28); type: in vivo, human; conditions: within the first 14 days of therapy
Description: All patients also received an anti-androgen drug. Cosudex® may also be given (5 mg/day or 50 mg/day orally) for 1 month. All patients undergo a Full Blood Analysis (FBA) prior to the commencement of therapy. FBA involves standard pathology analysis of lymphocytes, white blood cells, hematocrit and red blood cell content. In addition, analysis of immunological parameters including T cell stimulation, cytokine production, immune cell subsets and TREC analysis are performed. Additionally, blood samples from each patient are drawn at days −2, 0, 1, 2, 3, 7, 10, 14, 21, and 28, and monthly thereafter for 6 months. The blood samples are then evaluated for WBC, neutrophils, T cells (by FACS analysis, as described in detail above), granulocytes levels, and hematocrit, using the methods described in detail elsewhere herein, as well as methods well known to those skilled in the art.

thymic cellularity = assay: IL-7 administration with or without castration in allogeneic HSCT recipients, thymic cellularity; type: in vivo, mice
Source text: Mice and HSCT. Male C57BL/6J (B6, H-2b), C3FeB6F1/J([B6 3 C3H]F1; H-2b/k), B10.BR (H-2k), B6D2F1/J (H-2b/d), CBA/J (H-2k), Balb/c (H2-d), IL7−/− and KGF−/− mice were obtained from the Jackson Laboratory (Bar Harbor, Me.) and used in experiments when they were between 8 and 12 weeks of age. KGF−/− and IL7−/− were used between 4 and 7 months of age. HSCT protocols were approved by the Memorial Sloan-Kettering Cancer Center Institutional Animal Care and Use Committee. The BM cells were removed aseptically from femurs and tibias. Donor BM was depleted of T cells by incubation with anti-Thy-1.2 for 30 mins. at 4° C. followed by incubation with Low-TOX-M rabbit complement (Cedarlane Laboratories, Hornby, ON, Canada) for 1 hour at 37° C. Splenic T cells (for GVHD analysis) were obtained by purification over a nylon wool column followed by red cell removal with ammonium chloride red cell lysis buffer. Cells (5×10^6 BM cells with or without splenic T cells and leukemia cells) were resuspended in Dulbecco modified essential medium (Life Technologies, Grand Island, N.Y.) and transplanted by tail vein infusion (0.25 mL total volume) into lethally irradiated recipients on day 0. Prior to transplantation, on day 0, recipients received 1300 cGy total body irradiation (^137Cs source) as split dose with 3 hours between doses (to reduce gastrointestinal toxicity). Mice were housed in sterilized microisolator cages and received normal chow and autoclaved hyperchlorinated drinking water (pH 3.0).
Administration of IL-7. IL-7 were either given from days 0 to 13 or 21 to 27 intraperitoneally at 10 μg/day for immune reconstitution studies. PBS was injected into control mice at the same time-points.
Flow Cytometric Analysis. BM cells, splenocytes or thymocytes were washed in FACS buffer (phosphate buffered saline (PBS)/2% bovine serum albumin (BSA)/0.1% azide) and 1-3×10^6 cells were incubated for 30 mins. at 4° C. with CD16/CD32 FcR block. Cells were then incubated for 30 mins. at 4° C. with primary antibodies and washed twice with FACS buffer. Where necessary, cells were incubated with conjugated Streptavidin for a further 30 mins. at 4° C. The stained cells were resuspended in FACS buffer and analyzed on a FACSCalibur™ flow cytometer (Becton Dickinson, San Jose, Calif.) with CellQuest™ software.

[8] = test system: IL-7-dependent murine pre-B cell line 2E8; assay: Thymidine incorporation proliferation assay with IL-7-dependent pre-B cell line; type: cell-based; conditions: 2E8 cell line
Description: Tissue culture medium consisted of RPMI 1640 supplemented with 10% heat inactivated fetal calf serum, 100 U/mL penicillin, […] streptomycin, and 2 mM L-glutamine (as well as […] 2-mercaptoethanol for the culture of 32Dp210 cells and proliferation assays).

[9] = cited from earlier work

With `CC(=O)N[C@H](Cc1ccc2ccccc2c1)C(=O)N[C@H](Cc1ccc(Cl)cc1)C(=O)N[C@H](Cc1cccnc1)C(=O)N[C@@H](CO)C(=O)N(C)[C@@H](Cc1ccc(O)cc1)C(=O)N[C@H](CC(N)=O)C(=O)N[C@@H](CC(C)C)C(=O)N[C@@H](CCCCNC(C)C)C(=O)N1CCC[C@H]1C(=O)N[C@H](C)C(N)=O` [Abarelix, abarelix] (Ac-[d2Nal][dPhe(4-Cl)][d3Pal]S[NMeY][dN]L[Lys(iPr)]P[dA]-NH2) as the molecule, how does the time to castration (sex steroids [1]) read?
The time to castration was 5 to 8 days.

For `CCNC(=O)[C@@H]1CCCN1C(=O)[C@H](CCCN=C(N)N)NC(=O)[C@H](CC(C)C)NC(=O)[C@@H](Cc1c[nH]c2ccccc12)NC(=O)[C@H](Cc1ccc(O)cc1)NC(=O)[C@H](CO)NC(=O)[C@H](Cc1c[nH]c2ccccc12)NC(=O)[C@H](Cc1cnc[nH]1)NC(=O)[C@@H]1CCC(=O)N1` [Deslorelin], which “additional time to decrease circulating sex steroid levels versus surgical castration” value [2] is on record?
The value was “about 3 weeks”.

What about the “rate of regeneration post-cyclophosphamide treatment compared to surgical castration” value ([2]; injected for four weeks) of the same molecule?
The value was “comparable rate of regeneration”.

And the “enhancing effects on thymic expansion and recovery of spleen and lymph node versus surgical castration” value ([2]; post-cyclophosphamide)?
The value was “equivalent”.

With `CCNC(=O)[C@@H]1CCCN1C(=O)[C@H](CCCNC(=N)N)NC(=O)[C@H](CC(C)C)NC(=O)[C@@H](CC(C)C)NC(=O)[C@H](Cc1ccc(O)cc1)NC(=O)[C@H](CO)NC(=O)[C@H](Cc1c[nH]c2ccccc12)NC(=O)[C@H](Cc1c[nH]cn1)NC(=O)[C@@H]1CCC(=O)N1` [Lupron®, leuprolide acetate] as the molecule, how does the “results versus higher Lupron dosage (Group 2)” value ([3]; G-CSF plus low dose Lupron 11.25 mg (Group 3)) read?
The value was “not statistically different”.

What about the “results versus Group 2” value ([3]; Lupron 22.5 mg on day 14 pre-chemotherapy (Group 4)) of the same molecule?
The value was “not statistically different”.

What about the “duration of sex steroid ablation” value (sex steroids [4]) of the same molecule?
The value was “four months”.

And the “infection rates between the 2 groups” value ([5]; 3, 6 and 9 months from transplant)?
Its value is “statistically different”.

What about the “WBC counts, mean days of severe Neutropenia (ANC <500/mm^3) and febrile neutropenia versus non-treated group” value ([5]; up to day 21 from transplantation) of the same molecule?
Its value is “clinically and statistically significant reduction”.

And the “incidence of viral and other infection rates between the two groups” value ([5]; up to month 1)?
Its value is “not be statistically significant”.

And the “hemagglutination-inhibition antibody titer versus prior to therapy” value [6]?
The value was “higher hemagglutination-inhibition antibody titer”.

What about the “patients with an increase in haemopoiesis (T cell analysis) and neutrophil count versus baseline” value [7] of the same molecule?
The value was “approximately 70%”.

With “IL-7: Recombinant human IL-7 provided by Cytheris” as the molecule, how does the “thymic cellularity, combined castration and IL-7 versus castrated group” value (thymic cellularity; day 14 after allo-HSCT) read?
The value was “no significant difference”.

What about the “thymic cellularity, combined castration and IL-7 versus control” value (thymic cellularity; day 14 after allo-HSCT) of the same molecule?
Its value is “significantly more cells”.

And the “thymic cellularity, IL-7 treated sham-castrated versus PBS treated sham-castrated” value (thymic cellularity; day 14 after allo-HSCT, 10 μg/day i.p. days 0-13)?
Its value is “no difference”.

What about the “thymic cellularity, IL-7 alone group versus control group” value (thymic cellularity; day 28 after allo-HSCT, IL-7 days 21-27) of the same molecule?
The value was “significantly higher than the control group”.

What about the “effect of combination of IL-7 treatment and castration on thymic cellularity” value (thymic cellularity; day 28 after allogeneic HSCT) of the same molecule?
Its value is “additive effect”.

What about the “proliferative effect on murine cells” value [8] of the same molecule?
The value was “equal to murine IL-7”.

B1: G-CSF: granulocyte colony stimulating factor, Neupogen (Amgen) (protein, UniProt P09919 31-207, looked up)
Granulocyte …: TPLGPASSLPQSFLLKCLEQVRKIQGDGAALQEKLVSECATYKLCHPEELVLLGHSLGIPWAPLSSCPSQALQLAGCLSQLHSGLFLYQGLLQALEGISPELGPTLDTLQLDVADFATTIWQQMEELGMAPALQPTQGAMPAFASAFQRRAGGVLVASHLQSFLEVSYRVLRHLAQP
modifications: filgrastim, N-terminal Met
Which neutrophils ([9]; other Phase I/II trials) does the source give for B1 here?
Its neutrophils is “measurable increases in neutrophils”.

And the “incidence of infection (febrile neutropenia, infection rates, in-patient hospitalization, antibiotic use)” value ([9]; small cell lung cancer, 4-8 μg/kg/day s.c. days 4-17 after chemotherapy, placebo-controlled)?
Its value is “clinically and statistically significant decrease”.

B2: Neulasta®: Amgen product given as single SC dose on day 2 of each chemotherapy cycle; called GM-CSF in the text (protein, UniProt P09919 31-207, looked up)
Granulocyte …: TPLGPASSLPQSFLLKCLEQVRKIQGDGAALQEKLVSECATYKLCHPEELVLLGHSLGIPWAPLSSCPSQALQLAGCLSQLHSGLFLYQGLLQALEGISPELGPTLDTLQLDVADFATTIWQQMEELGMAPALQPTQGAMPAFASAFQRRAGGVLVASHLQSFLEVSYRVLRHLAQP
modifications: pegfilgrastim: PEGylated, N-terminal Met
notes: called GM-CSF in the text
Which “rates of febrile Neutropenia” value ([9]; both studies) does the source give for B2 here?
The value was 10-20%.

And the “mean days of severe Neutropenia” value ([9]; metastatic breast cancer, administered day 2 of chemotherapy cycle, both studies)?
The value was “approximately 1.7 days”.
